This is an account of results in patent US4542145A, “Substituted N-[(1H-1,2,4-triazol-1-yl)-alkyl]heteroarylcarboxamides” (American Cyanamid Company, priority 1984, dated 1985).

For assay [1], the system named is spontaneously hypertensive rats. The assay can be described thus: Hypotensive activity in spontaneously hypertensive rats (mean arterial blood pressure). Particulars: oral gavage, about 100 mg/kg or less, two doses 24 h apart, 0.9% NaCl loading with first; about 28 hours after initial dose; SHR average MABP 170±1.5 mm of mercury; (No. of rats) in parentheses. The class given is in vivo, spontaneously hypertensive rats (Okamoto strain). Here is the method:
The novel compounds of the present invention are active hypotensive agents and were tested for hypotensive activity by the method of P. S. Chan and D. Poorvin, Clinical and Experimental Hypertension, 1 (6), 817-830 (1979). Male, 16 week old, spontaneously hypertensive rats of the Okamoto strain, from Taconic Farms, Germantown, N.Y., having an average mean arterial blood pressure of 170±1.5 mm of mercury are used in the test. One to 3 rats are used per test compound. A rat is dosed by gavage with a test compound, suspended in approximately 2% pre-boiled starch at a concentration of about 50 mg/ml, at a dose of about 100 mg/kg of body weight or less, with approximately 0.9% sodium chloride loading at a dose of about 25 ml/kg of body weight. A second identical dose of the test compound, without sodium chloride loading is given about 24 hours later. At about 28 hours after the initial dose the mean arterial blood pressure is measured by the method of Chan and Poorvin vide supra. The procedure is repeated in a second and third rat when necessary.

Another assay has as its target T1, thromboxane synthetase (Rattus norvegicus, UniProt P49430).
T1 construct: The platelets were isolated by centrifuging the PRP; endogenous in cells; host or cells: washed platelets from arterial blood of Okamoto-Aoki spontaneously hypertensive rats (Taconic Farms)
T1 sequence (P49430 1-533): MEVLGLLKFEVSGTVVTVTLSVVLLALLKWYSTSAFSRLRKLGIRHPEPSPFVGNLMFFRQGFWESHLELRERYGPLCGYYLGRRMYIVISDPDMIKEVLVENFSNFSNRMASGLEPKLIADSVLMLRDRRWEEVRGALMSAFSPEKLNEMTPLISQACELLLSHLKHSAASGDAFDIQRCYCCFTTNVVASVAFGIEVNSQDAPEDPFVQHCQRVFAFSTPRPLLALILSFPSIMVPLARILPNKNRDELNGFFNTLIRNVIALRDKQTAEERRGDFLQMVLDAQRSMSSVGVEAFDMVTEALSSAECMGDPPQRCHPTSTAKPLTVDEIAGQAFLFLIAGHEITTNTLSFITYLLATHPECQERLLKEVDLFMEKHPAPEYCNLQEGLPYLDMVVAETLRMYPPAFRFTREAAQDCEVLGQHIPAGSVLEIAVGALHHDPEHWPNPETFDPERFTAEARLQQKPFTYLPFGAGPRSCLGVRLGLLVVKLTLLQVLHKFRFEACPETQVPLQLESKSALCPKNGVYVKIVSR
The assay can be described thus: Inhibition of thromboxane (TXB2) formation in washed SHR platelets, RIA. The class given is cell-based, spontaneously hypertensive rats (Okamoto-Aoki). Particulars: 10 min, Dose 10^-4 (unit inferred), about 10 minutes at about 37° C. The protocol: Under urethan anesthesia, about 10 μl arterial blood was collected in approximately 1 ml. of about 3.2% sodium citrate in a polystyrene tube from Okamoto-Aoki spontaneously hypertensive rats (SHR) (Taconic Farms, Germantown, N.Y.) between 19 and 24 weeks in age. The blood was diluted with about 3 ml of cold saline and centrifuged at room temperature for about 15 minutes at 460 xg. The platelet rich plasma (PRP) was separated. The platelets were isolated by centrifuging the PRP for about 10 minutes at 1060 xg and were washed in about 4 ml of cold oxygenated Krebs phosphate buffer, about pH 7.4. The chilled platelets recovered from centrifuging at 800 xg for about 10 minutes were resuspended in oxygenated Krebs phosphate buffer and diluted to contain 4.5-6.0×10^4 platelets/μl.
The inhibition of thromboxane (TX) formation was studied by determining the concentration of thromboxane B2 (TXB2), the stable hydrolysis product of TXA2. Assay samples, prepared on ice, contained about 200 μl platelet suspension, about 50 μl saline and about 50 μl vehicle or drug under study. The samples were incubated for about 10 minutes at about 37° C. in a metabolic shaker. The reaction was terminated by immersing the tubes in an ice bath and adding about 50 μl of approximately 0.5 M citric acid. The samples were centrifuged for about 10 minutes in a refrigerated centrifuge and the supernatants thus obtained were decanted and stored at about-20° C. The TXB2 content for each sample was determined by a direct radioimmunoassay (RIA) utilizing a TXB2 specific RIA kit purchased from New England Nuclear, Boston, Mass. and expressed as pg TXB2 formed minute^-1 sample^-1, from which the percent inhibition of TXB2 formation was calculated.

Each structure is given as a SMILES string. Where a name gives a salt, the structure may show the parent alone.

For the compound `O=C(NCCCn1cncn1)c1ccc(Cl)s1` [5-chloro-N--[3-(1H--1,2,4-triazol-1-yl)propyl]-2-thiophenecarboxamide], in assay [1], the “MABP (mean arterial blood pressure)” value amounted to 135 m Hg. This compound registered an inhibition at 100 µM against thromboxane synthetase of 64%. For `O=C(NCCCCn1cncn1)c1sc2ccccc2c1Cl` [3-Chloro-N-[4-(1H-1,2,4-triazol-1-yl)-butyl]benzo[b]thiophene-2-carboxamide], in assay [1], the “MABP (mean arterial blood pressure)” value is 119 m Hg. In addition, on thromboxane synthetase, 100 µM produced 90% inhibition.

On to `O=C(NCCCn1cncn1)c1ccc(Br)o1` [5-bromo-N--[3-(1H--1,2,4-triazol-1-yl)propyl]-2-furancarboxamide], for which the “MABP (mean arterial blood pressure)” value in assay [1] was determined as 107 m Hg. This compound also registered an inhibition at 100 µM on thromboxane synthetase of 61%.

`O=C(NCCCn1cncn1)c1ccco1` [N-[3-(1H-1,2,4-Triazol-1-yl)propyl]-2-furancarboxamide] returned an inhibition at 100 µM against thromboxane synthetase of 65%.

Consider `O=C(NCCCn1cncn1)c1cc2ccccc2o1` [N--[3-(1H--1,2,4-triazol-1-yl)propyl]-2-benzo-furancarboxamide], for which the “MABP (mean arterial blood pressure)” value in assay [1] is listed as 135 m Hg. In addition, the inhibition at 100 µM on thromboxane synthetase stood at 84%. The corresponding values for `O=C(NCCCn1cncn1)c1cccs1` [N--[3-(1H--1,2,4-triazol-1-yl)propyl]-2-thio-phenecarboxamide] are 130 m Hg and 30%. On the same counts, the results for `O=C(NCCCn1cncn1)c1ccoc1` [N--[3-(1H--1,2,4-triazol-1-yl)propyl]-3-furan-carboxamide] are 135 m Hg and 55%. The corresponding values for `O=C(NCCCn1cncn1)c1cc(Br)c(Br)s1` [4,5-dibromo-N--[3-(1H--1,2,4-triazol-1-yl)-propyl]-2-thiophene-carboxamide] are 137 m Hg and 86%. With `O=C(NCCCn1cncn1)c1sc2ccccc2c1Cl` [3-chloro-N--[3-(1H--1,2,4-triazol-1-yl)propyl]-benzo[b]thiophene-2-carboxamide], in assay [1], the “MABP (mean arterial blood pressure)” value is 137 m Hg. The same compound displayed an inhibition at 100 µM against thromboxane synthetase of 60%. `O=C(C=Cc1cccs1)NCCCn1cncn1` [N--[3-(1H--1,2,4-triazol-1-yl)propyl]-3-(2-thien-yl)-2-propenamide] came in with an inhibition at 100 µM on thromboxane synthetase of 68%. With `O=C(NCCCn1cncn1)c1ccc([N+](=O)[O-])o1` [5-Nitro-N-[3-(1H-1,2,4-triazol-y)propyl]-2-furancarboxamide], the “MABP (mean arterial blood pressure)” value in assay [1] is listed as 132 m Hg. Also, the inhibition at 100 µM against thromboxane synthetase was determined as 70%. Consider `O=C(NCCCn1cncn1)c1ccco1` [N--[3-(1H--1,2,4-triazol-1-yl)propyl]-2-furancarboxamide, fumarate], for which, in assay [1], the “MABP (mean arterial blood pressure)” value came out at 116 m Hg. Consider `Cc1ccc(C(=O)NCCCn2cncn2)s1` [5-methyl-N--[3-(1H--1,2,4-triazol-1-yl)propyl]-2-thiophenecarboxamide], for which 100 µM produced 56% inhibition against thromboxane synthetase.

As for `O=C(NCCn1cncn1)c1sc2ccccc2c1Cl` [3-Chloro-N-[2-(1H-1,2,4-triazol-1-yl)ethyl]-benzo[b]thiophene-2-carboxamide], the inhibition at 100 µM against thromboxane synthetase turned out to be 90%.
